Experimental data reported in EP4678638A1, “NEW E3 UBIQUITIN LIGASE LIGAND, PROTEIN DEGRADATION AGENT AND USE THEREOF” (priority 2023, dated 2024).
Read-outs that look alike come from different tables or passages of the source.

Assays:
MV-4-11 = test: CCK-8 proliferation, MV-4-11; format: cell-based, Human; details: CCK-8, 72 or 96 hours, read-out: Inhibitory activity (IC50) on tumor cell proliferation, MV-4-11
Method in brief: (§1)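 Cells seeded, then after 24 h treated with 10 concentrations (top 10 µM, 5-fold serial dilution) for a line-specific time at 37°C, 5% CO2. Viability read by CCK-8; IC50 fitted from growth-inhibition curves.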

CCRF-CEM = test: CCK-8 proliferation, CCRF-CEM; format: cell-based, Human; details: CCK-8, 96 hours, read-out: Inhibitory activity (IC50) on tumor cell proliferation, CCRF-CEM
Method in brief: as §1

Kasumi-1 = test: CCK-8 proliferation, Kasumi-1; format: cell-based, Human; details: read-out: Inhibitory activity (IC50) on tumor cell proliferation, Kasumi-1
Experimental: (§2) The tumor cells used herein were cultured in a cell culture medium listed in table A1 at 37°C in an incubator with 5% CO2. Prior to experimentation, all cell lines used were correctly identified by STR profiling, and tested negative for mycoplasma contamination using a mycoplasma detection kit through routine screenings. Table A1. Tumor cells and cell culture medium used in the present disclosure
(§3) IC50 values of the compounds of the present disclosure (including the compounds in Table 1, and compounds of examples) were measured using the Meilun Cell Counting Kit-8 kit from Dalian Meilun Biotech Co., Ltd. Assay details are as follows: tumor cells were seeded in a 96-well plate at a density listed in Table A2. After 24h, 100 µL of the inoculated cells were treated with 0.5µL of the compounds of the present disclosure (including the compounds in Tables 1 and 2, and compounds of examples) at 10 different successively decreasing concentrations (starting at the highest concentration of 10µM; 5-fold serial dilutions). After the cells were treated with the compounds of the present disclosure for a period of time, the cell viability detection reagent was added to the culture medium for cell viability assessment according to the instructions provided with the CCK-8 kit. […] The growth inhibition of the compounds of the present disclosure on cells was plotted by Prism Graphpad software, and the IC50 values of the compounds of the present disclosure were calculated therefrom. […] Seeding protocol and treatment time for tumor cells

PC-9 = test: CCK-8 proliferation, PC-9; format: cell-based, Human; details: Homo sapiens, PC-9; CCK-8; 96 hours; read-out: Inhibitory activity (IC50) on tumor cell proliferation, PC-9
Experimental: as §2, §3

HCC827 = test: CCK-8 proliferation, HCC827; format: cell-based, Human; details: Homo sapiens, HCC827; CCK-8; 96 hours; read-out: Inhibitory activity (IC50) on tumor cell proliferation, HCC827
Experimental: as §2, §3

EGFR = test: Western blot degradation of EGFR (H1975 Cell); format: cell-based, Human; details: Table D2
Method in brief: (§4)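 Quantification by ImageJ densitometry of Western blot bands: DC50 is the fitted concentration halving band intensity relative to DMSO. Percent remaining uses internal-control normalization, and degradation rate is its complement.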

MCF7 = test: CCK-8 proliferation, MCF7 (MCF-7); format: cell-based; details: Homo sapiens, MCF7, CCK-8
Method in brief: as §1

CDK4 = molecular target: T1, CDK4 (Homo sapiens, UniProt P11802); test: Western blot degradation of CDK4 (MDA-MB-231 Cell); format: cell-based; details: Table D3
T1 construct: evaluate the effects of the compounds of the present disclosure on the expression of target proteins in cells; endogenous in cells; host or cells: MDA-MB-231
T1 sequence (P11802 whole entry): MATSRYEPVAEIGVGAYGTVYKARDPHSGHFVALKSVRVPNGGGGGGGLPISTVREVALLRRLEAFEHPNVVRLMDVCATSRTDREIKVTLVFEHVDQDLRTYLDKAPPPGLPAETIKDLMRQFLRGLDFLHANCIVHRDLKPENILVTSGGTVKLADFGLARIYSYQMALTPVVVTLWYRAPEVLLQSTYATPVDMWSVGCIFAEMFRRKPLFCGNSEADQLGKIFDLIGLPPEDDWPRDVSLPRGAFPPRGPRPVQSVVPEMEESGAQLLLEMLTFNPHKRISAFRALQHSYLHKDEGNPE
Method in brief: as §4

CDK6 = molecular target: T2, CDK6 (Homo sapiens, UniProt Q00534); test: Western blot degradation of CDK6 (MDA-MB-231 Cell); format: cell-based; details: Table D3
T2 construct: evaluate the effects of the compounds of the present disclosure on the expression of target proteins in cells; endogenous in cells; host or cells: MDA-MB-231
Method in brief: as §4

H1975 = test: CCK-8 proliferation, NCI-H1975 (H1975); format: cell-based, Human; details: Homo sapiens, NCI-H1975; CCK-8; 96 hours; read-out: Inhibitory activity (IC50) on tumor cell proliferation, H1975
Method in brief: as §1

MDA-MB-231 = test: CCK-8 proliferation, MDA-MB-231; format: cell-based; details: Homo sapiens, MDA-MB-231; CCK-8; 96 hours; read-out: Inhibitory activity (IC50) on tumor cell proliferation, MDA-MB-231
Method in brief: as §1

WEE1 = molecular target: T3, WEE1 (Homo sapiens, UniProt P30291+Q96SW2); test: Western blot degradation of WEE1 (hPBMC); format: cell-based; details: Table D16
T3 construct: evaluate the effects of the compounds of the present disclosure on the expression of target proteins in cells; endogenous in cells; host or cells: hPBMC
T3 sequence (P30291 whole entry): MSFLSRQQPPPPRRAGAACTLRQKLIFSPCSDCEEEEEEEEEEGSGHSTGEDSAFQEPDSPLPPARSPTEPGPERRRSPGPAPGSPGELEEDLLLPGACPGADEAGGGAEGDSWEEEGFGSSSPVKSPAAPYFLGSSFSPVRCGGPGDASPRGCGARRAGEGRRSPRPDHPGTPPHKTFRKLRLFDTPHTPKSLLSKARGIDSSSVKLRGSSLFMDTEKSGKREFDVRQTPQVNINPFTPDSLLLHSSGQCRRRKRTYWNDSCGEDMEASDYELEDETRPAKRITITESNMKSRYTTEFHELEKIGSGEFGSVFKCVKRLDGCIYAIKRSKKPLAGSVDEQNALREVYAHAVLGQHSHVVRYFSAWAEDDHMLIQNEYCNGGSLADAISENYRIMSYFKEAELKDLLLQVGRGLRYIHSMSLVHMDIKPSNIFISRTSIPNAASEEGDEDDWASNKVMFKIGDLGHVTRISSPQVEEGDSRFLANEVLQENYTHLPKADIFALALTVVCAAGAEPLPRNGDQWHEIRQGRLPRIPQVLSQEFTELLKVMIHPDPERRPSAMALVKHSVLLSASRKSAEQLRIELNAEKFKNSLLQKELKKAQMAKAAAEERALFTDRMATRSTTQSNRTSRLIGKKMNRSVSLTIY
T3 sequence (Q96SW2 whole entry): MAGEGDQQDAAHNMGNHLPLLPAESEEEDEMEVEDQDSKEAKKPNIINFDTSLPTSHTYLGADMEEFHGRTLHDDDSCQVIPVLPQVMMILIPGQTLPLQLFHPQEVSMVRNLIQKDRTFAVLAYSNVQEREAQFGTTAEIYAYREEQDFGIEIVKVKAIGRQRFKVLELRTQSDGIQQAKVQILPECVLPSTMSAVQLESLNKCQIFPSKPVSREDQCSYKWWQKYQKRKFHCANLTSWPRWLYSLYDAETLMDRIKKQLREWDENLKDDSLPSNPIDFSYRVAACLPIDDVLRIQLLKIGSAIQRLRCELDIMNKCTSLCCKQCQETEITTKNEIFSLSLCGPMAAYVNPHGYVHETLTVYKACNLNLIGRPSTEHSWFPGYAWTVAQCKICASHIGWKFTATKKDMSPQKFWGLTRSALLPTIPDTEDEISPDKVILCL
T3 sequence (Q16531 whole entry partner): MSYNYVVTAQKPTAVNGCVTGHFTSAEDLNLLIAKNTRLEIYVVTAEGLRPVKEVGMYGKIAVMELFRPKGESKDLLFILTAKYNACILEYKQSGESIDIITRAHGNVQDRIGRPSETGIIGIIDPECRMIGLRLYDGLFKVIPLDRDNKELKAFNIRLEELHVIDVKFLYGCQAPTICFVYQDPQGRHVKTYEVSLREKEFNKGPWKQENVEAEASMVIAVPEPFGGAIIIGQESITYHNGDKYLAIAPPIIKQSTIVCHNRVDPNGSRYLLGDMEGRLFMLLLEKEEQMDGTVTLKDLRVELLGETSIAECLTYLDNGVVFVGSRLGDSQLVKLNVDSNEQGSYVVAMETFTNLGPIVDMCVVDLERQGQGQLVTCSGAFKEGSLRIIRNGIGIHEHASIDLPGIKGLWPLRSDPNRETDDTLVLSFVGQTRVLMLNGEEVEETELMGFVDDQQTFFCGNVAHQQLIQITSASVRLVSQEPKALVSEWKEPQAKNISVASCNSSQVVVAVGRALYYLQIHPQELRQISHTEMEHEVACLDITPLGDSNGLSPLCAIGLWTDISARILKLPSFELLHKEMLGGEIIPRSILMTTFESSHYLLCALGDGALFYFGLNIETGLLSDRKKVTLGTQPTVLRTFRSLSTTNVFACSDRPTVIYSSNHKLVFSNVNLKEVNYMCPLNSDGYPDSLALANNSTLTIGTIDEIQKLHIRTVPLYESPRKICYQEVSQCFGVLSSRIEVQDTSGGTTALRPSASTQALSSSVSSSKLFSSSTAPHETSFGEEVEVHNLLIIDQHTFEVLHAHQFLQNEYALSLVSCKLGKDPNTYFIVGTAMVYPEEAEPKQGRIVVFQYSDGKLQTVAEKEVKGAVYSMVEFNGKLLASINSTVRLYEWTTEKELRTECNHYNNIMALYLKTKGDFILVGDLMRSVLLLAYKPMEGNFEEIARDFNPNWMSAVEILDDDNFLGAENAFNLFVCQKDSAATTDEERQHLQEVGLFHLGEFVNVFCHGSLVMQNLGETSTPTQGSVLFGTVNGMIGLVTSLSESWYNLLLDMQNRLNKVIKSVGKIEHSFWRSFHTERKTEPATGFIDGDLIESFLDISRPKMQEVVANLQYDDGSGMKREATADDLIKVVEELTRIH
Method in brief: as §4

IKZF1 = molecular target: T4, IKZF1 (Homo sapiens, UniProt Q13422+Q96SW2); test: Western blot degradation of IKZF1 (hPBMC); format: cell-based; details: Table D16
T4 construct: evaluate the effects of the compounds of the present disclosure on the expression of target proteins in cells; endogenous in cells; host or cells: hPBMC
T4 sequence (Q13422 whole entry): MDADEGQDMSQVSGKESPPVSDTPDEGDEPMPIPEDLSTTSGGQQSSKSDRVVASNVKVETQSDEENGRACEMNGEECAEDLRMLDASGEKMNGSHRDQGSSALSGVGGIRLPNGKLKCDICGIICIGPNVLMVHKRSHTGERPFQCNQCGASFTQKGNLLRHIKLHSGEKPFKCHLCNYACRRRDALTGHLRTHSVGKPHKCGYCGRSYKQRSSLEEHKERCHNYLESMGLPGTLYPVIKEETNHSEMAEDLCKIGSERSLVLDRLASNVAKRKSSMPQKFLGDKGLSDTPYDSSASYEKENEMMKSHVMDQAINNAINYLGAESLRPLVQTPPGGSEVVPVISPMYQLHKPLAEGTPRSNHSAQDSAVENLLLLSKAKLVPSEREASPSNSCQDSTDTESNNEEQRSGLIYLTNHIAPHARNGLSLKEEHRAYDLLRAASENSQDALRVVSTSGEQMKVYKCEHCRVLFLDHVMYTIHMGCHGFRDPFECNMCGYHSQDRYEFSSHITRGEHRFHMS
T4 sequence (Q96SW2 whole entry): as the sequence (Q96SW2 whole entry) above
T4 sequence (Q16531 whole entry partner): as the sequence (Q16531 whole entry partner) above
Method in brief: as §4

IKZF2 = molecular target: T5, IKZF2 (Homo sapiens, UniProt Q96SW2+Q9UKS7); test: Western blot degradation of IKZF2 (hPBMC); format: cell-based; details: Table D16
T5 construct: evaluate the effects of the compounds of the present disclosure on the expression of target proteins in cells; endogenous in cells; host or cells: hPBMC
T5 sequence (Q9UKS7 whole entry): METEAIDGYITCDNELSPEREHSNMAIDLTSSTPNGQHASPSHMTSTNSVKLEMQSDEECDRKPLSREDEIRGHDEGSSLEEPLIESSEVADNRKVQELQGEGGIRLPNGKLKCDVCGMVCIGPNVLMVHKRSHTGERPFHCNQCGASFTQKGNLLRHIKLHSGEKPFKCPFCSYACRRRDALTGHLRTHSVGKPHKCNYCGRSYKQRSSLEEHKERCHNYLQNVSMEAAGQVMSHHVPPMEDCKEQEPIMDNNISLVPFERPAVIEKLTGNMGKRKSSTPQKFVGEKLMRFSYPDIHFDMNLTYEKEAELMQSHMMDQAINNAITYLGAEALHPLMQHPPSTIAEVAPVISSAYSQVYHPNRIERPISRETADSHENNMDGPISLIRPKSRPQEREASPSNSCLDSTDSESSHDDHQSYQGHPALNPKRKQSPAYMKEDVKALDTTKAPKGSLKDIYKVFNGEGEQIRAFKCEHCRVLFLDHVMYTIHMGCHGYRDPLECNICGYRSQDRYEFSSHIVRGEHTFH
T5 sequence (Q96SW2 whole entry): as the sequence (Q96SW2 whole entry) above
T5 sequence (Q16531 whole entry partner): as the sequence (Q16531 whole entry partner) above
Method in brief: as §4

IKZF3 = molecular target: T6, IKZF3 (Homo sapiens, UniProt Q96SW2+Q9UKT9); test: Western blot degradation of IKZF3 (hPBMC); format: cell-based; details: Table D16
T6 construct: evaluate the effects of the compounds of the present disclosure on the expression of target proteins in cells; endogenous in cells; host or cells: hPBMC
T6 sequence (Q9UKT9 whole entry): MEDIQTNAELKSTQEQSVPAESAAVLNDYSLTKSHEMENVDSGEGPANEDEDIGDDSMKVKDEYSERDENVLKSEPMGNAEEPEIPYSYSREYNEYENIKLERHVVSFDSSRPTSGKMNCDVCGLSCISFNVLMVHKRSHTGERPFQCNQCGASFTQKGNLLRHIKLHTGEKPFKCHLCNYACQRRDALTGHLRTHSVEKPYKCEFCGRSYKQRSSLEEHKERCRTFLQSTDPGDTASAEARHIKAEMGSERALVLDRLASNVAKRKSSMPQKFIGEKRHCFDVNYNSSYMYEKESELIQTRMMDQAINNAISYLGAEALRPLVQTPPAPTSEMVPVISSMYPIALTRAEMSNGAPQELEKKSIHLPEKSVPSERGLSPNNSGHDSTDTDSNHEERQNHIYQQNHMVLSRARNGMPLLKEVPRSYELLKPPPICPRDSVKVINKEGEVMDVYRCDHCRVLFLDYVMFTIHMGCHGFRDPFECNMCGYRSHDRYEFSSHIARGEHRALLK
T6 sequence (Q96SW2 whole entry): as the sequence (Q96SW2 whole entry) above
T6 sequence (Q16531 whole entry partner): as the sequence (Q16531 whole entry partner) above
Method in brief: as §4

CK1a = molecular target: T7, CK1a (Homo sapiens, UniProt P48729+Q96SW2); test: Western blot degradation of CK1a (hPBMC); format: cell-based; details: Table D16
T7 construct: evaluate the effects of the compounds of the present disclosure on the expression of target proteins in cells; endogenous in cells; host or cells: hPBMC
Method in brief: as §4

GSPT1 = molecular target: T8, GSPT1 (Homo sapiens, UniProt P15170+Q96SW2); test: Western blot degradation of GSPT1 (hPBMC); format: cell-based; details: Table D16
T8 construct: evaluate the effects of the compounds of the present disclosure on the expression of target proteins in cells; endogenous in cells; host or cells: hPBMC
T8 sequence (P15170 whole entry): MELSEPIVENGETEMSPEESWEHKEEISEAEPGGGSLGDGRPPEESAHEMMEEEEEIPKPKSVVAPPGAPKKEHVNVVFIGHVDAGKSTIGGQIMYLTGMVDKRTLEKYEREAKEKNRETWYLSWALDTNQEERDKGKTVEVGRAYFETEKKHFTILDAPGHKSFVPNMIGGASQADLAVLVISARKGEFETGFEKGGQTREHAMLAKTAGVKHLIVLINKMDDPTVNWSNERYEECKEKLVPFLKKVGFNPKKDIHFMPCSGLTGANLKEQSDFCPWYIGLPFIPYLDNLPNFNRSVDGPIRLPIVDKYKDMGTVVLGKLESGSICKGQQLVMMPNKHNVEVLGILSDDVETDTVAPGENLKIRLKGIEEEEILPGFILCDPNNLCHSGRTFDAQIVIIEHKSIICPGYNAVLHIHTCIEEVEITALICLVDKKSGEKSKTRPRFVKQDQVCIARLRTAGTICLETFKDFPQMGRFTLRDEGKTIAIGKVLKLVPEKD
T8 sequence (Q96SW2 whole entry): as the sequence (Q96SW2 whole entry) above
T8 sequence (Q16531 whole entry partner): as the sequence (Q16531 whole entry partner) above
Method in brief: as §4

[1] = Homo sapiens, Kasumi 1, 72 hours

| Structure (SMILES) | IC50 (MV-4-11; Homo sapiens, MV4-11) [nM] | IC50 (PC-9) [nM] | IC50 (HCC827) [nM] | IC50 (Kasumi-1; [1]) [nM] | further results |
| --- | --- | --- | --- | --- | --- |
| O=C1CCC(Nc2cccc(CN3CCN(c4ccc(Nc5ncc6nc(Nc7ccccc7)n(C7CCCC7)c6n5)cc4)CC3)c2)C(=O)N1 (stereo not drawn) [GT-05841, 3-((3-((4-(4-((9-cyclopentyl-8-(phenylamino)-9H-purin-2-yl)amino)phenyl)piperazin-1-yl)methyl)phenyl)amino)piperidine-2,6-dione] | – | 10 to 50 | 10 to 50 | – | Degradation of substrate protein EGFR (substrate protein remaining %) (EGFR): A (A is defined as 0% ≤ substrate protein remaining % ≤ 80%) |
| Cc1nc2c(F)cc(-c3nc(Nc4ccc(CN5CCN(Cc6ccc(N7CCC(=O)NC7=O)nc6)CC5)cn4)ncc3F)cc2n1C(C)C [GT-06668, 1-(5-((4-((6-((5-fluoro-4-(4-fluoro-1-isopropyl-2-methyl-1H-benzo[d]imidazol-6-yl)pyrimidin-2-yl)amino)pyridin-3-yl)methyl)piperazin-1-yl)methyl)pyridin-2-yl)dihydropyrimidine-2,4(1H,3H)-dione] | 50 to 100 | – | – | 100 to 500 | IC50 (MCF7; read-out: Inhibitory activity (IC50) on tumor cell proliferation, MCF7): 50 to 100 nM; Degradation of substrate protein CDK4 (substrate protein remaining %) (CDK4): A (A is defined as 0% ≤ substrate protein remaining % ≤ 80%); Degradation of substrate protein CDK6 (substrate protein remaining %) (CDK6): A (A is defined as 0% ≤ substrate protein remaining % ≤ 80%) |
| CN(Cc1ccc(N2CCC(=O)NC2=O)nc1)C1CCN(c2ccc(Nc3ncc4nc(Nc5ccccc5)n(C5CCCC5)c4n3)cc2)CC1 [GT-05871, 1-(5-(((1-(4-((9-cyclopentyl-8-(phenylamino)-9H-purin-2-yl)amino)phenyl)piperidin-4-yl)(methyl)amino)methyl)pyridin-2-yl)dihydropyrimidine-2,4(1H,3H)-dione] | – | 1 to 10 | 10 to 50 | – | IC50 (H1975): 100 to 500 nM |
| O=C1CCN(c2ccc(CN3CCN(c4ccc(Nc5ncc6nc(Nc7ccccc7)n(C7CCCC7)c6n5)cc4)CC3)cc2)C(=O)N1 [GT-05837, 1-(4-((4-(4-((9-cyclopentyl-8-(phenylamino)-9H-purin-2-yl)amino)phenyl)piperazin-1-yl)methyl)phenyl)dihydropyrimidine-2,4(1H,3H)-dione] | – | 1 to 10 | 1 to 10 | – | IC50 (H1975): 100 to 500 nM |
| Cc1cc(S(=O)(=O)N2CCN(Cc3ccc(N4CCC(=O)NC4=O)cc3)CC2)ccc1Nc1ncc(Br)c(Nc2cccc(F)c2C(N)=O)n1 [GT-06831, 2-((5-bromo-2-((4-((4-(4-(2,4-dioxotetrahydropyrimidin-1(2H)-yl)benzyl)piperazin-1-yl)sulfonyl)-2-methylphenyl)amino)pyrimidin-4-yl)amino)-6-fluorobenzamide] | 100 to 500 | – | – | 500 to 1000 | – |
| O=C1CCN(c2cnc(F)c(CCl)c2)C(=O)N1 [GT-07633, 1-(5-(Chloromethyl)-6-fluoropyridin-3-yl)dihydropyrimidine-2,4(1H,3H)-dione] | – | – | – | – | IC50 (MCF7; read-out: Inhibitory activity (IC50) on tumor cell proliferation, MCF-7): 1000 to 5000 nM; IC50 (MDA-MB-231): 1000 to 5000 nM; Degradation of substrate protein WEE1 (substrate protein remaining %) (WEE1): A (A is defined as 0% ≤ substrate protein remaining % ≤ 80%); Degradation of substrate protein IKZF1 (substrate protein remaining %) (IKZF1): B (B is defined as substrate protein remaining % > 80%); Degradation of substrate protein IKZF2 (substrate protein remaining %) (IKZF2): A (A is defined as 0% ≤ substrate protein remaining % ≤ 80%); Degradation of substrate protein IKZF3 (substrate protein remaining %) (IKZF3): B (B is defined as substrate protein remaining % > 80%); Degradation of substrate protein CKla (substrate protein remaining %) (CK1a): A (A is defined as 0% ≤ substrate protein remaining % ≤ 80%); Degradation of substrate protein GSPT1 (substrate protein remaining %) (GSPT1): B (B is defined as substrate protein remaining % > 80%) |
| O=C1CCC(c2ccc(CN3CCN(c4ccc(Nc5ncc6nc(Nc7ccccc7)n(C7CCCC7)c6n5)cc4)CC3)cc2F)C(=O)N1 (stereo not drawn) [GT-03741, 3-(4-((4-(4-((9-cyclopentyl-8-(phenylamino)-9H-purin-2-yl)amino)phenyl)piperazin-1-yl)methyl)-2-fluorophenyl)piperidine-2,6-dione] | – | 10 to 50 | 10 to 50 | – | – |
| CN1CCN(Cc2ccc(NC(=O)c3[nH]ncc3Nc3ncnc4[nH]ccc34)cc2)CC1 [FN-1501, reference compound] | – | – | – | – | IC50 (MV-4-11): 1 to 10 nM; IC50 (CCRF-CEM): 100 to 500 nM; IC50 (Kasumi-1; 72 hours): 100 to 500 nM |

The next lines start with results.

| IC50 (MV-4-11; Homo sapiens, MV4-11) [nM] | IC50 (PC-9) [nM] | IC50 (HCC827) [nM] | Structure (SMILES) | IC50 (Kasumi-1; [1]) [nM] | further results |
| --- | --- | --- | --- | --- | --- |
| 100 to 500 | – | – | Cc1ccsc1C(=O)n1nc(Nc2ccc(S(=O)(=O)N3CCN(Cc4ccc(N5CCC(=O)NC5=O)nc4)CC3)cc2)nc1N [GT-06861, 1-(5-((4-((4-((5-amino-1-(3-methylthiophene-2-carbonyl)-1H-1,2,4-triazol-3-yl)amino)phenyl)sulfonyl)piperazin-1-yl)methyl)pyridin-2-yl)dihydropyrimidine-2,4(1H,3H)-dione] | 500 to 1000 | IC50 (CCRF-CEM; Homo sapiens, CCRF-CEM): 500 to 1000 nM |
| 100 to 500 | – | – | Cc1ccsc1C(=O)n1nc(Nc2ccc(S(=O)(=O)N3CCN(Cc4cccc(NC5CCC(=O)NC5=O)c4)CC3)cc2)nc1N (stereo not drawn) [GT-06862, 3-((3-((4-((4-((5-amino-1-(3-methylthiophene-2-carbonyl)-1H-1,2,4-triazol-3-yl)amino)phenyl)sulfonyl)piperazin-1-yl)methyl)phenyl)amino)piperidine-2,6-dione] | 100 to 500 | – |
| 100 to 500 | – | – | Cc1cc(S(=O)(=O)N2CCN(Cc3ccc(N4CCC(=O)NC4=O)nc3)CC2)ccc1Nc1ncc(Br)c(Nc2cccc(F)c2C(N)=O)n1 [GT-06834, 2-((5-bromo-2-((4-((4-((6-(2,4-dioxotetrahydropyrimidin-1(2H)-yl)pyridin-3-yl)methyl)piperazin-1-yl)sulfonyl)-2-methylphenyl)amino)pyrimidin-4-yl)amino)-6-fluorobenzamide] | 500 to 1000 | IC50 (CCRF-CEM; Homo sapiens, CCRF-CEM): 500 to 1000 nM |
| 100 to 500 | – | – | Cc1ccsc1C(=O)n1nc(Nc2ccc(S(=O)(=O)N3CCN(Cc4ccc(N5CCC(=O)NC5=O)cc4)CC3)cc2)nc1N [GT-06856, 1-(4-((4-((4-((5-amino-1-(3-methylthiophene-2-carbonyl)-1H-1,2,4-triazol-3-yl)amino)phenyl)sulfonyl)piperazin-1-yl)methyl)phenyl)dihydropyrimidine-2,4(1H,3H)-dione] | 500 to 1000 | IC50 (CCRF-CEM; Homo sapiens, CCRF-CEM): 500 to 1000 nM |
| 100 to 500 | – | – | Cc1cc(S(=O)(=O)N2CCN(Cc3cccc(N4CCC(=O)NC4=O)c3)CC2)ccc1Nc1ncc(Br)c(Nc2cccc(F)c2C(N)=O)n1 [GT-06832, 2-((5-bromo-2-((4-((4-(3-(2,4-dioxotetrahydropyrimidin-1(2H)-yl)benzyl)piperazin-1-yl)sulfonyl)-2-methylphenyl)amino)pyrimidin-4-yl)amino)-6-fluorobenzamide] | 500 to 1000 | – |
